Read-outs that look alike come from different tables or passages of the source. One block for each molecule: values may come before it.
Target: T1, Recombinant human GSK3β (Homo sapiens, UniProt P49841)
T1 construct: His-tag; made in house; host or cells: Sf9 insect cells / baculovirus
Experiment: GSK-3β (Glycogen Synthase Kinase) cell free enzyme assay
Type: biochemical
Details: for inhibition at 1 µM: read-out: Percent inhibition at 1 μM; for IC50: cell free enzyme assay
Description: Assay Protocol for GSK-3β (Glycogen Synthase Kinase) in a Cell Free Enzyme Assay
Recombinant human GSK3β was expressed in SF9/Baculo virus cells. His-tag protein was purified by affinity chromatography to a Ni-NTA Superflow column. Enzyme activity was assayed as the incorporation of [33P] from the gamma phosphate of [33P]ATP (PerkinElmer) into biotinylated peptide substrate bio-LC-S-R-H-S-S-P-H-Q-pS-E-D-E-E-E-OH (Anaspec). Reactions were carried out in a buffer containing 8 mM MOPS (pH 7.0), 10 mM Magnesium Acetate, 0.2 mM EDTA, 1 mM DTT and 2 uM cold ATP. The 33P-ATP was added for 0.025 uCi/well (120 uL) and the final concentration of substrate was 1.0 uM. Enzyme was preincubated with test agent for 30 minutes at room temperature followed by initiation of the reaction by the addition of substrate mix. Incubations were carried out at RT for 60 min. Reactions were stopped by addition of 0.66 volume of buffer containing: 12.5 mM EDTA, 0.25% Triton-X 100, 125 uM ATP, and 6.2 mg/ml streptavidin coated SPA beads (Amersham) in PBS without Ca or Mg. Radioactivity associated with the beads was quantified by scintillation counting of CPM in a Trilux counter (PerkinElmer).
Examples 42 to 60 were prepared using the analogous procedure described to prepare Example 41, substituting the appropriate starting material (Examples 1 to 35) and coupling with the appropriate acid. The assay protocol used is the percent inhibition at 1 μM for GSK-3β in the cell free enzyme assay described above.

[1] = GSK-3β cell free enzyme assay, Examples 42-60

T1 sequence (P49841 whole entry): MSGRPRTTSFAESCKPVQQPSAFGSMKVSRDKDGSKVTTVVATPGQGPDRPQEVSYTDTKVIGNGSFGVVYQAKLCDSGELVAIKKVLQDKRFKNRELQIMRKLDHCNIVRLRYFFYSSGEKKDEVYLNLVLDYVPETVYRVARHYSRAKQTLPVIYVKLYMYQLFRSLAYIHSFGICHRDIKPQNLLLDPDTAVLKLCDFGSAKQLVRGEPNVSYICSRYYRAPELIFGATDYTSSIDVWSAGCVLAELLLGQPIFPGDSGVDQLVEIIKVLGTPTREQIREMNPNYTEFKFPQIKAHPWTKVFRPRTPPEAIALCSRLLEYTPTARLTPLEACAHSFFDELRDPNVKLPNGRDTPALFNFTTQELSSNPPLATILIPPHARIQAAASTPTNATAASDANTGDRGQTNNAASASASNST

inhibition at 1 µM [1]: 39%
SMILES: CC(=O)N1CCC(Nc2nc(-c3ccncc3)cc(=O)n2C)C1 (stereo not shown) [Example 45, 2-[(1-Acetylpyrrolidin-3-yl)amino]-3-methyl-6-pyridin-4-ylpyrimidin-4(3H)-one]

IC50 (Examples 62-155): 96.1 nM
SMILES: CCN(c1nc(-c2ccncc2)cc(=O)n1C)C1CCN(C(=O)c2ccccc2)C1 (stereo not shown) [Example 69, 2-[(1-Benzoylpyrrolidin-3-yl)(ethyl)amino]-3-methyl-6-pyridin-4-ylpyrimidin-4(3H)-one]

IC50 (Examples 265-291): 109 nM
SMILES: CC(C)Cc1nn(C)c2c(=O)[nH]c(N3C[C@@H]4[C@H](C3)[C@H]4N(C)c3nc(-c4ccncc4F)cc(=O)n3C)nc12 [Example 278, 5-[(1R,5S,6s)-6-{[4-(3-Fluoropyridin-4-yl)-1-methyl-6-oxo-1,6-dihydropyrimidin-2-yl](methyl)amino}-3-azabicyclo[3.1.0]hex-3-yl]-3-isobutyl-1-methyl-1,6-dihydro-7H-pyrazolo[4,3-d]pyrimidin-7-one]

IC50 (Examples 1-35): 2.2 nM
SMILES: Cn1c(N[C@H]2[C@@H]3CN(C(=O)OC(C)(C)C)C[C@@H]32)nc(-c2ccncc2)cc1=O [Example 2, tert-butyl (1R,5S,6s)-6-[(1-Methyl-6-oxo-4-pyridin-4-yl-1,6-dihydropyrimidin-2-yl)amino]-3-azabicyclo[3.1.0] hexane-3-carboxylate]

inhibition at 1 µM (Examples 236-262): 74%
SMILES: Cn1c(NC2CCCCN(Cc3ccccc3)C2)nc(-c2ccncc2)cc1=O (stereo not shown) [Example 252, 2-[(1-Benzylazepan-3-yl)amino]-3-methyl-6-pyridin-4-ylpyrimidin-4(3H)-one]

inhibition at 1 µM (Examples 157-199): 76%
SMILES: Cn1c(NCC2CCN(S(=O)(=O)c3ccccc3)C2)nc(-c2ccncc2)cc1=O (stereo not shown) [Example 191, 3-Methyl-2-({[1-(phenylsulfonyl)pyrrolidin-3-yl]methyl}amino)-6-pyridin-4-ylpyrimidin-4(3H)-one]

IC50 (Examples 1-35): 26.3 nM
SMILES: Cn1c(N[C@H]2CN(C(=O)OC(C)(C)C)C[C@@H]2F)nc(-c2ccncc2)cc1=O [Example 17, tert-butyl (3S,4S)-3-Fluoro-4-[(1-methyl-6-oxo-4-pyridin-4-yl-1,6-dihydropyrimidin-2-yl)amino]pyrrolidine-1-carboxylate]

IC50 (Examples 1-35): 16.5 nM
SMILES: CCN(c1nc(-c2ccncc2)cc(=O)n1C)C1CCN(C(=O)OC(C)(C)C)C1 (stereo not shown) [Example 13, tert-butyl 3-[Ethyl(1-methyl-6-oxo-4-pyridin-4-yl-1,6-dihydropyrimidin-2-yl)amino]pyrrolidine-1-carboxylate]

inhibition at 1 µM (Examples 157-199): 100%
SMILES: CN(c1nc(-c2ccncc2)cc(=O)n1C)[C@@H]1CC[C@H]2N(S(=O)(=O)c3ccccc3)CC[C@@]2(C)C1 [Example 183, 3-Methyl-2-{methyl[(3,aS5,R7,aR)-3a-methyl-1-(phenylsulfonyl)octahydro-1H-indol-5-yl]amino}-6-pyridin-4-ylpyrimidin-4(3H)-one]

IC50 (Examples 62-155): 12.4 nM
SMILES: Cn1c(NC2CCCN(C(=O)c3ccccc3)CC2)nc(-c2ccncc2)cc1=O (stereo not shown) [Example 63, 2-[(1-Benzoylazepan-4-yl)amino]-3-methyl-6-pyridin-4-ylpyrimidin-4(3H)-one]

inhibition at 1 µM (Examples 236-262): 63%
SMILES: Cn1c(NC2CCN(Cc3ccccc3)C2)nc(-c2ccncc2)cc1=O (stereo not shown) [Example 236, 2-[(1-Benzylpyrrolidin-3-yl)amino]-3-methyl-6-pyridin-4-ylpyrimidin-4(3H)-one]

inhibition at 1 µM (Examples 157-199): 78%
SMILES: Cn1c(NC[C@H]2CCCN2S(C)(=O)=O)nc(-c2ccncc2)cc1=O [Example 168, 3-Methyl-2-({[(2R)-1-(methylsulfonyl)pyrrolidin-2-yl]methyl}amino)-6-pyridin-4-ylpyrimidin-4(3H)-one]

IC50 (Examples 62-155): 4.03 nM
SMILES: COc1ccc(CC(=O)N2C[C@@H]3[C@H](C2)[C@H]3N(C)c2nc(-c3ccncc3F)cc(=O)n2C)cc1 [Example 109, 6-(3-Fluoropyridin-4-yl)-2-[{(1R,5S,6s)-3-[(4-methoxyphenyl)acetyl]-3-azabicyclo[3.1.0]hex-6-yl}(methyl)amino]-3-methylpyrimidin-4(3H)-one]

IC50 (Examples 62-155): 29.5 nM
SMILES: CCN(C[C@H]1CCCN1C(=O)c1ccccc1)c1nc(-c2ccncc2)cc(=O)n1C [Example 77, 2-[{[(2R)-1-Benzoylpyrrolidin-2-yl]methyl}(ethyl)amino]-3-methyl-6-pyridin-4-ylpyrimidin-4(3H)-one]

IC50 (Examples 1-35): 20.5 nM
SMILES: Cn1c(N2[C@@H]3CC[C@H]2CC(n2cnc4ccccc42)C3)nc(-c2ccncc2)cc1=O (stereo partly drawn) [Example 16, 2-[(1R,5S)-3-(1H-Benzimidazol-1-yl)-8-azabicyclo[3.2.1]oct-8-yl]-3-methyl-6-pyridin-4-ylpyrimidin-4(3H)-one]

inhibition at 1 µM (Examples 157-199): 100%
SMILES: CCN(c1nc(-c2ccncc2)cc(=O)n1C)C1CCCN(S(C)(=O)=O)CC1 (stereo not shown) [Example 163, 2-{Ethyl[1-(methylsulfonyl)azepan-4-yl]amino}-3-methyl-6-pyridin-4-ylpyrimidin-4(3H)-one]

IC50 (Examples 62-155): 1.84 nM
SMILES: CN(c1nc(-c2ccncc2F)cc(=O)n1C)[C@H]1[C@@H]2CN(C(=O)c3c(F)cc(F)cc3F)C[C@@H]21 [Example 117, 6-(3-Fluoropyridin-4-yl)-3-methyl-2-{methyl[(1R,5S,6s)-3-(2,4,6-trifluorobenzoyl)-3-azabicyclo[3.1.0]hex-6-yl]amino}pyrimidin-4(3H)-one]

IC50 (Examples 62-155): 32.9 nM
SMILES: CC(=O)O[C@@H](C)C(=O)N1C[C@@H]2[C@H](C1)[C@H]2N(C)c1nc(-c2ccncc2F)cc(=O)n1C [Example 119, (1S)-2-[(1R,5S,6R)-6-{[4-(3-Fluoropyridin-4-yl)-1-methyl-6-oxo-1,6-dihydropyrimidin-2-yl](methyl)amino}-3-azabicyclo[3.1.0]hex-3-yl]-1-methyl-2-oxoethyl acetate]

IC50 (Examples 265-291): 5.99 nM
SMILES: CN(c1nc(-c2ccncc2F)cc(=O)n1C)[C@H]1[C@@H]2CN(c3nnnn3-c3cccc(OC(F)(F)F)c3)C[C@@H]21 [Example 291, 6-(3-Fluoropyridin-4-yl)-3-methyl-2-{methyl[(1R,5S,6s)-3-{1-[3-(trifluoromethoxy)phenyl]-1H-tetrazol-5-yl}-3-azabicyclo[3.1.0]hex-6-yl]amino}pyrimidin-4(3H)-one]

IC50 (Examples 62-155): 8.72 nM
SMILES: CN(c1nc(-c2ccncc2F)cc(=O)n1C)[C@H]1[C@@H]2CN(C(=O)C3CC=CCC3)C[C@@H]21 (stereo partly drawn) [Example 140, 2-{[(1R,5S,6s)-3-(Cyclohex-3-en-1-ylcarbonyl)-3-azabicyclo[3.1.0]hex-6-yl](methyl)amino}-6-(3-fluoropyridin-4-yl)-3-methylpyrimidin-4(3H)-one]

IC50 (Examples 222-234): 0.825 nM
SMILES: CCOC(=O)N1CCC[C@@H]1CN(CC)c1nc(-c2ccncn2)cc(=O)n1C [Example 227, Ethyl (2R)-2-{[ethyl(1-methyl-6-oxo-1,6-dihydro-4,4′-bipyrimidin-2-yl)amino]methyl}pyrrolidine-1-carboxylate]

IC50 (Examples 1-35): 30.1 nM
SMILES: CN(c1nc(-c2ccncc2)cc(=O)n1C)[C@@H]1CC[C@H]2N(C(=O)OC(C)(C)C)CC[C@@]2(C)C1 [Example 31, tert-butyl (3aS,5R,7aR)-3a-Methyl-5-[methyl(1-methyl-6-oxo-4-pyridin-4-yl-1,6-dihydropyrimidin-2-yl)amino]octahydro-1H-indole-1-carboxylate]

IC50 (Examples 1-35): 2.8 nM
SMILES: Cn1c(N[C@H]2[C@@H]3CN(C(=O)OC(C)(C)C)C[C@@H]32)nc(-c2ccncc2)cc1=O [Example 6, tert-butyl (1R,5S,6s)-6-[(1-Methyl-6-oxo-4-pyridin-4-yl-1,6-dihydropyrimidin-2-yl)amino]-3-azabicyclo[3.1.0] hexane-3-carboxylate]

IC50 (Examples 222-234): 1.99 nM
SMILES: CCOC(=O)N1CCC[C@@H](Nc2nc(-c3ccncn3)cc(=O)n2C)C1 [Example 229, Ethyl (3R)-3-[(1-methyl-6-oxo-1,6-dihydro-4,4′-bipyrimidin-2-yl)amino]piperidine-1-carboxylate]

IC50 (Examples 1-35): 12 nM
SMILES: Cn1c(NC2(c3cccc(C(C)(C)C)c3)CCOCC2)nc(-c2ccncc2)cc1=O [Example 27, 2-{[4-(3-tert-Butylphenyl)tetra-hydro-2H-pyran-4-yl]amino}-3-methyl-6-pyridin-4-ylpyrimidin-4(3H)-one]

IC50 (Examples 62-155): 3.81 nM
SMILES: CN(c1nc(-c2ccncc2F)cc(=O)n1C)[C@H]1[C@@H]2CN(C(=O)c3c(Cl)cccc3Cl)C[C@@H]21 [Example 149, 2-{[(1R,5S,6s)-3-(2,6-Dichlorobenzoyl)-3-azabicyclo[3.1.0]hex-6-yl](methyl)amino}-6-(3-fluoropyridin-4-yl)-3-methylpyrimidin-4(3H)-one]

inhibition at 1 µM [1]: 37%
SMILES: CC(=O)N1CCC(CNc2nc(-c3ccncc3)cc(=O)n2C)C1 (stereo not shown) [Example 59, 2-{[(1-Acetylpyrrolidin-3-yl)methyl]amino}-3-methyl-6-pyridin-4-ylpyrimidin-4(3H)-one]

inhibition at 1 µM (Examples 201-221): 32%
SMILES: COC(=O)N1C[C@H]2CCN(c3nc(-c4ccncc4)cc(=O)n3C)[C@H]2C1 [Example 203, Methyl (3a,R6,aR)-1-(1-methyl-6-oxo-4-pyridin-4-yl-16-dihydropyrimidin-2-yl)hexahydropyrrolo[34-b]pyrrole-5(1H)-carboxylate]
